Experimental data: patent US20240101570A1 (AMGEN INC., priority 2020, published 2024)

Tests used:
HCT116 MTAP null cells = assay: HCT116 MTAP null cell proliferation / viability (CellTiter-Glo, 6 days); assay type: cell-based; conditions: HCT116-MTAP null, 144 h, HCT116 MTAP null cells, 6 days, CellTiter-Glo; read-out: HCT-116 MTAP null IC50
How it was run: (§1)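 CellTiter-Glo luminescence, 6-day exposure, RPMI 1640 + 10% FBS. Dosing: 1:3 series (8-9 pts, top 1 or 10 μM) or 1:2 series (22 pts, top 10 or 50 μM), DMSO control. IC50 = 50% of control via curve fit.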

HCT116 WT cells = assay: HCT116 WT cell proliferation / viability (CellTiter-Glo, 6 days); assay type: cell-based; conditions: Homo sapiens, HCT-116, 144 h, HCT116 WT cells, 6 days, CellTiter-Glo; read-out: HCT-116 WT IC50
How it was run: as §1

| Compound | IC50 (HCT116 MTAP null cells) [µM] | IC50 (HCT116 WT cells) [µM] |
| --- | --- | --- |
| CCN(C(=O)c1cnc2nc(N)c3c(c2c1)COC3)C(C)c1ccc(C(F)(F)F)cn1 (racemic) [Example 705, 4-amino-N-ethyl-N-((1R)-1-(5-(trifluoromethyl)-2-pyridinyl)ethyl)-1,3-dihydrofuro[3,4-c][1,8]naphthyridine-8-carboxamide and 4-amino-N-ethyl-N-((1S)-1-(5-(trifluoromethyl)-2-pyridinyl)ethyl)-1,3-dihydrofuro[3,4-c][1,8]naphthyridine-8-carboxamide] | 0.637 | 28.5 |
| C[C@@H](c1ccc(F)cn1)N(C)C(=O)c1cc2c(cc1F)nc(N)c1cnn(C)c12 (single isomer, unassigned) [Example 874] | 0.929 | 36 |
| C[C@H]1OCc2c1c(N)nc1ccc(C(=O)N(Cc3ccc(C(F)(F)F)cn3)CC(C)(C)C)cc21 [Example 338, (3R)-4-amino-N-(2,2-dimethylpropyl)-3-methyl-N-((5-(trifluoromethyl)-2-pyridinyl)methyl)-1,3-dihydrofuro[3,4-c]quinoline-8-carboxamide] | 0.406 | 5.83 |
| Nc1nc2cc(Cl)c(C(=O)N(Cc3ccc(C(F)(F)F)cn3)C3CC3)cc2c2c1COC2 [Example 656, 4-amino-7-chloro-N-cyclopropyl-N-((5-(trifluoromethyl)-2-pyridinyl)methyl)-1,3-dihydrofuro[3,4-c]quinoline-8-carboxamide] | 0.019 | 1.26 |
| CC(C)N(Cc1ccc(C2CC2)cn1)C(=O)c1cc2c3c(c(N)nc2cc1Cl)COC3 [Example 379, 4-amino-7-chloro-N-((5-cyclopropyl-2-pyridinyl)methyl)-N-(2-propanyl)-1,3-dihydrofuro[3,4-c]quinoline-8-carboxamide] | 0.025 | 0.764 |
| CCN(Cc1cnc(C(F)(F)F)cn1)C(=O)c1ccc2nc(N)c3c(c2c1)CO[C@@H]3C [Example 500, (3R)-4-amino-N-ethyl-3-methyl-N-((5-(trifluoromethyl)-2-pyrazinyl)methyl)-1,3-dihydrofuro[3,4-c]quinoline-8-carboxamide] | 0.595 | 32.5 |
| Cn1cc(N(Cc2ccc(C(F)(F)F)cn2)C(=O)c2ccc3nc(N)c4c(cnn4C)c3c2)cn1 [Example 495, 4-amino-3-methyl-N-(1-methyl-1H-pyrazol-4-yl)-N-((5-(trifluoromethyl)-2-pyridinyl)methyl)-3H-pyrazolo[3,4-c]quinoline-8-carboxamide] | 0.079 | 6.36 |
| CCN(Cc1ccc(Cl)cn1)C(=O)c1cc2c3c(c(N)nc2cn1)COC3 [Example 698, 4-amino-N-((5-chloro-2-pyridinyl)methyl)-N-ethyl-1,3-dihydrofuro[3,4-c][1,7]naphthyridine-8-carboxamide] | 0.206 | 4.5 |
| CN(Cc1ccc(C#N)cn1)C(=O)c1ccc2nc(N)c3c(c2c1)COC3 [Example 324, 4-amino-N-((5-cyano-2-pyridinyl)methyl)-N-methyl-1,3-dihydrofuro[3,4-c]quinoline-8-carboxamide] | 0.908 | 51.6 |
| C[C@@H](C1CC1)N(Cc1ccc(C(F)(F)F)nn1)C(=O)c1cc2c3c(c(N)nc2cc1F)COC3 [Example 815, 4-amino-N-((1S)-1-cyclopropylethyl)-7-fluoro-N-((6-(trifluoromethyl)-3-pyridazinyl)methyl)-1,3-dihydrofuro[3,4-c]quinoline-8-carboxamide] | 0.018 | 0.301 |
| Nc1nc2ccc(C(=O)N(Cc3ccc(OC(F)(F)F)cn3)CC3CC3)cc2c2c1COC2 [Example 663, 4-amino-N-(cyclopropylmethyl)-N-((5-(trifluoromethoxy)-2-pyridinyl)methyl)-1,3-dihydrofuro[3,4-c]quinoline-8-carboxamide] | 0.035 | 1.02 |
| Cn1ncc2c3cc(C(=O)N(Cc4ccc(C(F)(F)F)cn4)C4CC4)c(Cl)cc3nc(N)c21 [Example 808, 4-amino-7-chloro-N-cyclopropyl-3-methyl-N-((5-(trifluoromethyl)-2-pyridinyl)methyl)-3H-pyrazolo[3,4-c]quinoline-8-carboxamide] | 0.052 | 3.13 |
| CC(C)N(Cc1ccc(C2CC2)cn1)C(=O)c1cc2c3c(c(N)nc2cn1)COC3 [Example 385, 4-amino-N-((5-cyclopropyl-2-pyridinyl)methyl)-N-(2-propanyl)-1,3-dihydrofuro[3,4-c][1,7]naphthyridine-8-carboxamide] | 0.157 | 7.29 |
| Nc1nc2ccc(C(=O)N(Cc3ccc(C(F)(F)F)nn3)C3CC3)cc2c2c1COC2 [Example 661, 4-amino-N-cyclopropyl-N-((6-(trifluoromethyl)-3-pyridazinyl)methyl)-1,3-dihydrofuro[3,4-c]quinoline-8-carboxamide] | 0.303 | 26.2 |
| Cn1cc(N(Cc2ccc(C(F)(F)F)cn2)C(=O)c2ccc3nc(N)c4cnn(C)c4c3c2)cn1 [Example 757, 4-amino-1-methyl-N-(1-methyl-1H-pyrazol-4-yl)-N-((5-(trifluoromethyl)-2-pyridinyl)methyl)-1H-pyrazolo[4,3-c]quinoline-8-carboxamide] | 0.026 | 1.31 |
| CC1OCc2c1c(N)nc1cnc(C(=O)N(C)Cc3ccc(Br)cn3)cc21 (racemic) [Example 433, (3R)-4-amino-N-((5-bromo-2-pyridinyl)methyl)-N,3-dimethyl-1,3-dihydrofuro[3,4-c][1,7]naphthyridine-8-carboxamide and (3S)-4-amino-N-((5-bromo-2-pyridinyl)methyl)-N,3-dimethyl-1,3-dihydrofuro[3,4-c][1,7]naphthyridine-8-carboxamide] | 0.344 | 21.2 |
| CC(C)N(Cc1ccc(OC(F)(F)F)cn1)C(=O)c1ccc2nc(N)c3c(c2c1)COC3 [Example 678, 4-amino-N-(2-propanyl)-N-((5-(trifluoromethoxy)-2-pyridinyl)methyl)-1,3-dihydrofuro[3,4-c]quinoline-8-carboxamide] | 0.04 | 1.18 |
| C[C@@H]1OCc2c1c(N)nc1cnc(C(=O)N(C)Cc3ccc(C4CC4)cn3)cc21 [Example 414, (3S)-4-amino-N-((5-cyclopropyl-2-pyridinyl)methyl)-N,3-dimethyl-1,3-dihydrofuro[3,4-c][1,7]naphthyridine-8-carboxamide] | 5.87 | > 50 |
| CCN(C(=O)c1ccc2nc(N)c3c(c2c1)COC3)[C@H](C)c1ccc(C(F)(F)F)cc1F [Example 742, 4-amino-N-ethyl-N-((1R)-1-(2-fluoro-4-(trifluoromethyl)phenyl)ethyl)-1,3-dihydrofuro[3,4-c]quinoline-8-carboxamide] | 0.066 | 2.5 |
| CN(CC(F)(F)c1ccc(Cl)cn1)C(=O)c1ccc2nc(N)c3cnn(C)c3c2c1 [Example 535, 4-amino-N-(2-(5-chloro-2-pyridinyl)-2,2-difluoroethyl)-N,1-dimethyl-1H-pyrazolo[4,3-c]quinoline-8-carboxamide] | 0.86 | 6.99 |
| CC(c1ccc(C(F)(F)F)cn1)N(C)C(=O)c1ccc2nc(N)c3c(c2c1)COC3 (racemic) [Example 697, 4-amino-N-methyl-N-((1R)-1-(5-(trifluoromethyl)-2-pyridinyl)ethyl)-1,3-dihydrofuro[3,4-c]quinoline-8-carboxamide and 4-amino-N-methyl-N-((1S)-1-(5-(trifluoromethyl)-2-pyridinyl)ethyl)-1,3-dihydrofuro[3,4-c]quinoline-8-carboxamide] | 0.121 | 4.43 |
| CN(Cc1ccc(C(F)(F)F)nn1)C(=O)c1cc2c3c(c(N)nc2cn1)COC3 [Example 375, 4-amino-N-methyl-N-((6-(trifluoromethyl)-3-pyridazinyl)methyl)-1,3-dihydrofuro[3,4-c][1,7]naphthyridine-8-carboxamide] | 1.5 | 6.89 |
| C[C@H](c1ncccn1)N(Cc1ccc(C(F)F)cn1)C(=O)c1ccc2nc(N)c3c(c2c1)COC3 [Example 438, 4-amino-N-((5-(difluoromethyl)-2-pyridinyl)methyl)-N-((1R)-1-(2-pyrimidinyl)ethyl)-1,3-dihydrofuro[3,4-c]quinoline-8-carboxamide] | 0.012 | 0.187 |
| C[C@H](c1ncccn1)N(Cc1ccc(OCC(F)(F)F)nn1)C(=O)c1ccc2nc(N)c3c(c2c1)COC3 [Example 453, 4-amino-N-((1R)-1-(2-pyrimidinyl)ethyl)-N-((6-(2,2,2-trifluoroethoxy)-3-pyridazinyl)methyl)-1,3-dihydrofuro[3,4-c]quinoline-8-carboxamide] | 0.035 | 0.543 |
| C[C@H](c1ccc(S(F)(F)(F)(F)F)cc1)N(C)C(=O)c1cc2c(cc1F)nc(N)c1cnn(C)c12 (single isomer, unassigned) [Example 870] | 0.007 | 0.162 |
| CO[C@@H]1COCC[C@H]1N(Cc1ccc(C(F)(F)F)cn1)C(=O)c1ccc2nc(N)c3c(c2c1)COC3 (single isomer, unassigned) [Example 584] | 0.014 | 0.164 |
| CC(C)N(Cc1ccc(C(F)(F)F)cn1)C(=O)c1ccc2nc(N)c3ccncc3c2c1 [Example 754, 5-amino-N-(2-propanyl)-N-((5-(trifluoromethyl)-2-pyridinyl)methyl)benzo[c][2,6]naphthyridine-9-carboxamide] | 0.024 | 0.37 |
